# Test results taken from patent US9833497B2, “Human originated EGF domain proteins and use of the same” (CHENGDU SOURCEBIO LIMITED-LIABILITY COMPANY, priority 2013, dated 2017).
# Experiments:
# Type in all cases: cell-based
# [1] = tested on: E. coli DH5α; test: Antibacterial activity: MIC and growth curve against E. coli DH5α in 96-well plate; conditions: minimal inhibitory concentration against E. coli DH5α; 96-well plate, 5×10^5 CFU/mL, 37° C., judged after 8 h
# Procedure, shortened: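 Log-phase DH5α (OD600 about 0.5, 37° C, 185 rpm in LB) was pelleted, resuspended in fresh LB and seeded at 5×10^5 CFU/mL with recombinant protein at 50, 25 and 12.5 μg/mL (two-fold series), in triplicate. Plates were shaken at 175 rpm, 37° C, and OD600 was read every 30 min. MIC was the lowest concentration with no growth.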
# [2] = tested on: E. coli BL21; test: MIC against Gram-negative bacteria: E. coli BL21
# Procedure, shortened: (§1)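 Two-fold serial dilutions of each purified human EGF domain protein, three replicate wells per level, were combined with bacteria at a final 5×10^5 CFU/mL in LB. Cultures were shaken at 175 rpm, 37° C. The MIC was taken as the minimum concentration preventing growth.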
# [3] = tested on: Aeromonas hydrophila; test: MIC against Gram-negative bacteria: Aeromonas hydrophila
# Procedure, shortened: as §1
# [4] = tested on: Pseudomonas aeruginosa; test: MIC against Gram-negative bacteria: Pseudomonas aeruginosa
# Procedure, shortened: as §1
# [5] = tested on: Klebsiella pneumonia; test: MIC against Gram-negative bacteria: Klebsiella pneumonia
# Procedure, shortened: as §1
# [6] = tested on: Serratia marcescens; test: MIC against Gram-negative bacteria: Serratia marcescens
# Procedure, shortened: as §1
# [7] = tested on: Proteus mirabilis; test: MIC against Gram-negative bacteria: Proteus mirabilis
# Procedure, shortened: as §1
# [8] = tested on: Proteus vulgaris; test: MIC against Gram-negative bacteria: Proteus vulgaris
# Procedure, shortened: as §1
# [9] = tested on: Enterobacter cloacae; test: MIC against Gram-negative bacteria: Enterobacter cloacae
# Procedure, shortened: as §1
# [10] = tested on: Citrobacter diversus; test: MIC against Gram-negative bacteria: Citrobacter diversus
# Procedure, shortened: as §1
# [11] = tested on: Moraxella catarrhalis; test: MIC against Gram-negative bacteria: Moraxella catarrhalis
# Procedure, shortened: as §1
# [12] = E. coli BL21, 10 h cultivation at 37° C., 5×10^5 CFU/mL
# [13] = A. hydrophila, 10 h cultivation at 37° C., 5×10^5 CFU/mL
# [14] = P. aeruginosa, 10 h cultivation at 37° C., 5×10^5 CFU/mL
# [15] = K. pneumonia, 10 h cultivation at 37° C., 5×10^5 CFU/mL
# [16] = S. marcescens, 10 h cultivation at 37° C., 5×10^5 CFU/mL
# [17] = P. mirabilis, 10 h cultivation at 37° C., 5×10^5 CFU/mL
# [18] = P. vulgaris, 10 h cultivation at 37° C., 5×10^5 CFU/mL
# [19] = E. cloacae, 10 h cultivation at 37° C., 5×10^5 CFU/mL
# [20] = C. diversus, 10 h cultivation at 37° C., 5×10^5 CFU/mL
# [21] = M. catarrhalis, 10 h cultivation at 37° C., 5×10^5 CFU/mL
# [22] = 96-well plate, 5×10^5 CFU/mL, 37° C., 10 h
# [23] = E. coli BL21, 96-well plate, 5×10^5 CFU/mL, 37° C., 10 h
# [24] = Aeromonas hydrophila, 96-well plate, 5×10^5 CFU/mL, 37° C., 10 h
# [25] = Pseudomonas aeruginosa, 96-well plate, 5×10^5 CFU/mL, 37° C., 10 h
# [26] = Klebsiella pneumonia, 96-well plate, 5×10^5 CFU/mL, 37° C., 10 h
# [27] = Serratia marcescens, 96-well plate, 5×10^5 CFU/mL, 37° C., 10 h
# [28] = Proteus mirabilis, 96-well plate, 5×10^5 CFU/mL, 37° C., 10 h
# [29] = Proteus vulgaris, 96-well plate, 5×10^5 CFU/mL, 37° C., 10 h
# [30] = Enterobacter cloacae, 96-well plate, 5×10^5 CFU/mL, 37° C., 10 h
# [31] = Citrobacter diversus, 96-well plate, 5×10^5 CFU/mL, 37° C., 10 h
# [32] = Moraxella catarrhalis, 96-well plate, 5×10^5 CFU/mL, 37° C., 10 h
substance,measurement,setting,value
PRT796 (SGDFCIPLCTEECVHGRCVSPDTCHCEPGWGGPDCS; listed as Homo sapiens),MIC,[1],25 µg/mL
same,MIC (μg/mL) E. coli BL21,[2]; [12],50 µg/mL
same,MIC (μg/mL) A. hydrophila,[3]; [13],50 µg/mL
same,MIC (μg/mL) P. aeruginosa,[4]; [14],12.5 µg/mL
same,MIC (μg/mL) K. pneumonia,[5]; [15],50 µg/mL
same,MIC (μg/mL) S. marcescens,[6]; [16],50 µg/mL
same,MIC (μg/mL) P. mirabilis,[7]; [17],12.5 µg/mL
same,MIC (μg/mL) P. vulgaris,[8]; [18],50 µg/mL
same,MIC (μg/mL) E. cloacae,[9]; [19],50 µg/mL
same,MIC (μg/mL) C. diversus,[10]; [20],5 µg/mL
same,MIC (μg/mL) M. catarrhalis,[11]; [21],50 µg/mL
PRT460 (DRDECSGGPSPCSHACLNAPGRFSCTCPTGFALAWDDRNCR; listed as Homo sapiens),MIC,[1],50 µg/mL
same,MIC against E. coli BL21,[2]; [22],25 µg/mL
same,MIC against A. hydrophila,[3]; [22],12.5 µg/mL
same,MIC against P. aeruginosa,[4]; [22],12.5 µg/mL
same,MIC against K. pneumonia,[5]; [22],25 µg/mL
same,MIC against S. marcescens,[6]; [22],12.5 µg/mL
same,MIC against P. mirabilis,[7]; [22],12.5 µg/mL
same,MIC against P. vulgaris,[8]; [22],50 µg/mL
same,MIC against E. cloacae,[9]; [22],50 µg/mL
same,MIC against C. diversus,[10]; [22],50 µg/mL
same,MIC against M. catarrhalis,[11]; [22],25 µg/mL
PRT1269 (DIDECQTRNGGCDHFCKNIVGSFDCGCKKGFKLLTDEKSCQ; listed as Homo sapiens),MIC,[1],12.5 µg/mL
same,MIC against E. coli BL21,[2]; [23],50 µg/mL
same,MIC against A. hydrophila,[3]; [24],50 µg/mL
same,MIC against P. aeruginosa,[4]; [25],25 µg/mL
same,MIC against K. pneumonia,[5]; [26],12.5 µg/mL
same,MIC against S. marcescens,[6]; [27],12.5 µg/mL
same,MIC against P. mirabilis,[7]; [28],12.5 µg/mL
same,MIC against P. vulgaris,[8]; [29],50 µg/mL
same,MIC against E. cloacae,[9]; [30],25 µg/mL
same,MIC against C. diversus,[10]; [31],12.5 µg/mL
same,MIC against M. catarrhalis,[11]; [32],50 µg/mL
PRT1370 (GVRSCPGDCRGRGRCESGRCMCWPGYTGRDC; listed as Homo sapiens),MIC,[1],25 µg/mL
same,MIC against E. coli BL21,"[2]; E. coli BL21, 5×10^5 CFU/mL, 10 h cultivation at 37° C.",12.5 µg/mL
same,MIC against A. hydrophila,"[3]; Aeromonas hydrophila, 5×10^5 CFU/mL, 10 h cultivation at 37° C.",25 µg/mL
same,MIC against P. aeruginosa,"[4]; Pseudomonas aeruginosa, 5×10^5 CFU/mL, 10 h cultivation at 37° C.",25 µg/mL
same,MIC against K. pneumonia,"[5]; Klebsiella pneumonia, 5×10^5 CFU/mL, 10 h cultivation at 37° C.",50 µg/mL
same,MIC against S. marcescens,"[6]; Serratia marcescens, 5×10^5 CFU/mL, 10 h cultivation at 37° C.",12.5 µg/mL
same,MIC against P. mirabilis,"[7]; Proteus mirabilis, 5×10^5 CFU/mL, 10 h cultivation at 37° C.",50 µg/mL
same,MIC against P. vulgaris,"[8]; Proteus vulgaris, 5×10^5 CFU/mL, 10 h cultivation at 37° C.",25 µg/mL
same,MIC against E. cloacae,"[9]; Enterobacter cloacae, 5×10^5 CFU/mL, 10 h cultivation at 37° C.",25 µg/mL
same,MIC against C. diversus,"[10]; Citrobacter diversus, 5×10^5 CFU/mL, 10 h cultivation at 37° C.",12.5 µg/mL
same,MIC against M. catarrhalis,"[11]; Moraxella catarrhalis, 5×10^5 CFU/mL, 10 h cultivation at 37° C.",25 µg/mL
PRT679 (DLNECAKPHLCGDGGFCINFPGHYKCNCYPGYRLKASRPPVCE; listed as Homo sapiens),MIC,[1],12.5 µg/mL
same,MIC E. coli BL21,[2]; [22],50 µg/mL
same,MIC A. hydrophila,[3]; [22],25 µg/mL
same,MIC P. aeruginosa,[4]; [22],25 µg/mL
same,MIC K. pneumonia,[5]; [22],25 µg/mL
same,MIC S. marcescens,[6]; [22],25 µg/mL
same,MIC P. mirabilis,[7]; [22],25 µg/mL
same,MIC P. vulgaris,[8]; [22],50 µg/mL
same,MIC E. cloacae,[9]; [22],12.5 µg/mL
same,MIC C. diversus,[10]; [22],50 µg/mL
same,MIC M. catarrhalis,[11]; [22],12.5 µg/mL
PRT87 (DACLLNPCQNQGSCRHLPGAPHGYTCDCVGGYFGHHCE; listed as Homo sapiens),MIC,[1],12.5 µg/mL
same,MIC (μg/mL) E. coli BL21,[2]; [23],12.5 µg/mL
same,MIC (μg/mL) A. hydrophila,[3]; [24],25 µg/mL
same,MIC (μg/mL) P. aeruginosa,[4]; [25],12.5 µg/mL
same,MIC (μg/mL) K. pneumonia,[5]; [26],50 µg/mL
same,MIC (μg/mL) S. marcescens,[6]; [27],50 µg/mL
same,MIC (μg/mL) P. mirabilis,[7]; [28],12.5 µg/mL
same,MIC (μg/mL) P. vulgaris,[8]; [29],25 µg/mL
same,MIC (μg/mL) E. cloacae,[9]; [30],12.5 µg/mL
same,MIC (μg/mL) C. diversus,[10]; [31],50 µg/mL
same,MIC (μg/mL) M. catarrhalis,[11]; [32],25 µg/mL
PRT991 (RGLLCGSFPEPCANGGTCLSLSLGQGTCQCAPGFLGETCQ; listed as Homo sapiens),MIC,[1],50 µg/mL
same,MIC,"[2]; E. coli BL21, 10 h cultivation at 37° C.",25 µg/mL
same,MIC,"[3]; A. hydrophila, 10 h cultivation at 37° C.",12.5 µg/mL
same,MIC,"[4]; P. aeruginosa, 10 h cultivation at 37° C.",12.5 µg/mL
same,MIC,"[5]; K. pneumonia, 10 h cultivation at 37° C.",25 µg/mL
same,MIC,"[6]; S. marcescens, 10 h cultivation at 37° C.",25 µg/mL
same,MIC,"[7]; P. mirabilis, 10 h cultivation at 37° C.",25 µg/mL
same,MIC,"[8]; P. vulgaris, 10 h cultivation at 37° C.",12.5 µg/mL
same,MIC,"[9]; E. cloacae, 10 h cultivation at 37° C.",50 µg/mL
same,MIC,"[10]; C. diversus, 10 h cultivation at 37° C.",50 µg/mL
same,MIC,"[11]; M. catarrhalis, 10 h cultivation at 37° C.",12.5 µg/mL
PRT638 (DVNECELLSGVCGEAFCENVEGSFLCVCADENQEYSPMTGQCR; listed as Homo sapiens),MIC,[1],25 µg/mL
same,MIC E. coli BL21,[2]; [22],12.5 µg/mL
same,MIC A. hydrophila,[3]; [22],50 µg/mL
same,MIC P. aeruginosa,[4]; [22],50 µg/mL
same,MIC K. pneumonia,[5]; [22],12.5 µg/mL
same,MIC S. marcescens,[6]; [22],50 µg/mL
same,MIC P. mirabilis,[7]; [22],50 µg/mL
same,MIC P. vulgaris,[8]; [22],12.5 µg/mL
same,MIC E. cloacae,[9]; [22],25 µg/mL
same,MIC C. diversus,[10]; [22],25 µg/mL
same,MIC M. catarrhalis,[11]; [22],12.5 µg/mL
PRT418 (DINECSSSPCSQECANVYGSYQCYCRRGYQLSDVDGVTCE; listed as Homo sapiens),MIC,[1],12.5 µg/mL
same,MIC,[2]; [12],12.5 µg/mL
same,MIC,[3]; [13],25 µg/mL
same,MIC,[4]; [14],12.5 µg/mL
same,MIC,[5]; [15],50 µg/mL
same,MIC,[6]; [16],50 µg/mL
same,MIC,[7]; [17],12.5 µg/mL
same,MIC,[8]; [18],25 µg/mL
same,MIC,[9]; [19],12.5 µg/mL
same,MIC,[10]; [20],50 µg/mL
same,MIC,[11]; [21],25 µg/mL
PRT1273 (DVDECEREDNAGCVHDCVNIPGNYRCTCYDGFHLAHDGHNCL; listed as Homo sapiens),MIC,[1],12.5 µg/mL
same,MIC against E. coli BL21,[2]; [23],50 µg/mL
same,MIC against A. hydrophila,[3]; [24],50 µg/mL
same,MIC against P. aeruginosa,[4]; [25],12.5 µg/mL
same,MIC against K. pneumonia,[5]; [26],50 µg/mL
same,MIC against S. marcescens,[6]; [27],50 µg/mL
same,MIC against P. mirabilis,[7]; [28],50 µg/mL
same,MIC against P. vulgaris,[8]; [29],12.5 µg/mL
same,MIC against E. cloacae,[9]; [30],12.5 µg/mL
same,MIC against C. diversus,[10]; [31],25 µg/mL
same,MIC against M. catarrhalis,[11]; [32],12.5 µg/mL
